Measured values published in patent publication US11117888B2, “Irreversible inhibitors of pyruvate kinase M2 and the use thereof” (China Medical University, priority 2020, dated 2021).
pIC50: −log10 of the molar value.

Columns and labels:
[1] = tested on: pyruvate kinase activity in PC-9 cells; experiment: Pyruvate kinase activity assay in PC-9 cells; assay type: cell-based, human; conditions: 0.25 μM, 6 hours, relative to vehicle control
Experimental: Pyruvate kinase activity assays. PC-9 cells were seeded into 6 cm dishes at a concentration of 5×10^5 cells/mL. After 24 hours, cells were treated with 0.25 μM compound 1 or DMSO for 6 hours. The pyruvate kinase activity of compound 1-treated PC-9 and vehicle control cells was measured by using a commercial colorimetric assay kit from BioVision (Milpitas, Calif., USA) according to the manufacturer's protocol. In addition, to verify the specificity of compound 1 toward PKM2 versus PKM1, the inhibition of the kinase activity of recombinant PKM1 (SRP0415, Sigma-Aldrich) and recombinant PKM2 (SAE0021, Sigma-Aldrich) by compound 1 was conducted using the aforementioned assay kit.

PC-9 xenograft tumors = experiment: PC-9 xenograft tumor model in nude mice; assay type: in vivo; conditions: 10 mg/kg once daily i.p., 25 days
Experimental: Pursuant to the above in vitro findings, we evaluated the in vivo tumor-suppressive efficacy of compound 1 in an ectopic PC-9 xenograft tumor model. Athymic nude mice bearing established subcutaneous PC-9 tumors were randomly divided into two groups (n=8 for each group; initial tumor volume: vehicle, 50±11 mm^3; compound 1, 53±6 mm^3), and were treated once daily with compound 1 at 10 mg/kg or vehicle via intraperitoneal injection.
In vivo efficacy study. Athymic nude mice were purchased from the National Laboratory Animal Center (Taipei, Taiwan). To assess the effect of compound 1 on tumor growth in vivo, 1×10^6 PC-9 cells were mixed with Matrigel (BD Biosciences) at a 1:1 ratio and subcutaneously implanted into nude mice (6-week-old, female; a total of 16 mice). After 7 days, mice were treated with once daily vehicle or 10 mg/kg compound 1 in sterile water containing 0.5% methylcellulose (w/v)+0.1% Tween-80 (v/v) (n=8 for each group). Tumors were measured with calipers and volumes were calculated using V=(width^2×length)×0.52. On day 25, tumors were excised and weighed. Tumor specimens were collected, and expression of target proteins in tumor lysates were analyzed by Western blotting, which were quantified by ImageJ. according to a published online procedure. (https://openwetware.org/wiki/Protein_Quantification_Using_ImageJ).

[2] = tested on: LNCaP prostate cancer cells; experiment: MTT cell viability assay, LNCaP; assay type: cell-based; conditions: Homo sapiens, 24 hours
Description: (§1) Cell lines, cell culture, biochemical reagents, and antibodies. MiaPaCa-2, AsPC-1, and Panc-1 human pancreatic cancer cells, MCF-7 and MDA-MB-231 breast cancer cells, SCC4 and SCC2059 oral cancer cells, PC-3 and LNCaP prostate cancer cells, H157, H460, H1975, PC-9 and H1650 lung cancer cells were obtained from the American Type Culture Collection (ATCC, Manassas, Va.). All these cells were maintained in recommended growth medium (RPMI 1640 or DMEM) supplemented with 10% fetal bovine serum (FBS) (Invitrogen, Carlsbad, Calif., USA) and antibiotics at 37° C. in a humidified incubator containing 5% CO2. For SILAC experiments, PC-9 cells were grown in SILAC DMEM medium (Thermo Fisher) supplemented with 10% dialyzed FBS and 100 μg/mL each of unlabeled L-arginine and L-lysine (light medium) or ^13C/^15N stable isotope-labeled L-arginine and L-lysine (heavy medium). […]
(§2) Cell viability assays. Drug effects on cell viability was assessed by 3-(4,5-dimethylthiazol-2-yl)-2,5-diphenyltetrazolium bromide ([…]) assays. […] The medium was then removed from each well and replaced with DMSO to dissolve the reduced MTT dye for subsequent colorimetric measurement of absorbance at 560 nm. Cell viabilities are expressed as percentages of viable cells relative to the corresponding vehicle-treated control group.

[3] = tested on: 246 different kinases (activity) and 143 different kinases (substrate binding); experiment: Kinase profiling analysis (Life Technologies' SelectScreen Profiling Service); assay type: biochemical; conditions: 500 nM; activity of 246 kinases, substrate binding to 143 kinases
Experimental: To shed light onto its potential target, compound 1 was submitted to a commercial vendor for kinase profiling analysis (Life Technologies' SelectScreen Profiling Service), in which the inhibitory effects of compound 1 at 500 nM on the activity of 246 different kinases as well as substrate binding to 143 different kinases were tested.

PC-9 cells = experiment: Seahorse Glycolysis Stress assay (ECAR and OCR); assay type: cell-based, human
Description: In light of the role of PKM2 in promoting glycolysis, we hypothesized that the antitumor activity of compound 1 might, in part, be attributable to its ability to reverse the glycolytic phenotype (i.e., Warburg effect) of cancer cells. Accordingly, we examined the effects of compound 1 on the extracellular acidification rate (ECAR) and cellular oxygen consumption rate (OCR) in PC-9 cells, which represent key bioenergetic parameters of glycolysis (lactate production) and mitochondrial respiration (oxidative phosphorylation), respectively, using a commercial kit (Agilent Seahorse XF Glycolysis Stress Test Kit). In the ECAR measurement, glucose, oligomycin (an ATP synthetase inhibitor), and 2-deoxyglucose (2-DG; a hexokinase/glycolysis inhibitor) were added in tandem to glucose-starved cells at different time intervals to activate or interfere with glycolysis, thereby allowing the calculation of the glycolytic flux and glycolytic capacity. […] Meanwhile, the OCR response, a parameter for oxidative phosphorylation, was concurrently monitored. […] It is noteworthy that when glucose was added to the basal medium, there was a decrease in the OCR in the control group. This phenomenon was previously referred to as the “Crabtree effect”, i.e., when glucose is added to activate glycolysis, it might be more favorable for cells to generate ATP through substrate-level phosphorylation, thereby reducing the need of oxidative phosphorylation. However, this glucose-induced drop in OCR became less apparent in the presence of compound 1, which might be associated with the ability of compound 1 to block glycolysis.
Glycolysis Stress assay. Extracellular acidification rate (ECAR) and oxygen consumption rate (OCR) were measured using a Seahorse Bioscience XF96 extracellular flux analyzer (Seahorse Bioscience) according to the manufacturer's protocol. PC-9 ells (5×10^4) were seeded in 96 Seahorse XF Cell Culture Microplate with normal growth medium 24 hours before treatment with compounds. The cells were treated with DMSO or compound 1 for 4 hours at 37° C. under 5% CO2 atmosphere. […]

[4] = tested on: PC-3 prostate cancer cells; experiment: MTT cell viability assay, PC-3; assay type: cell-based; conditions: Homo sapiens; PC-3, MTT, 24 hours
Description: as §1, §2

pIC50 [2]: < 5.70
pIC50 [4]: 6.22
SMILES: C#CC(=O)Nc1ccc(-n2nc(CCC(=O)NC)cc2-c2ccc(-c3ccc(C(F)(F)F)cc3)cc2)cc1 [compound 1, N-(4-(3-(3-(Methylamino)-3-oxopropyl)-5-(4′-(trifluoromethyl)-[1,1′-biphenyl]-4-yl)-1H-pyrazol-1-yl)phenyl)propiolamide]
pyruvate kinase activity in cells [1]: significantly reduced pyruvate kinase activity
expression of PKM2 and binding partners in tumor lysates (PC-9 xenograft tumors; Western blot): significant suppression of the expression of PKM2 and its binding partners EGFR, Stat3, and β-catenin
body weight loss (PC-9 xenograft tumors; relative to control): No appreciable weight loss
tumor growth (tumor volume and tumor weight) (PC-9 xenograft tumors; relative to vehicle): significantly suppressed tumor growth
inhibition of kinases in profiling panel [3]: none of the kinases examined was effectively inhibited
glycolytic acidification (ECAR) (PC-9 cells; 0.25-1 μM, 4 hours): suppressed the glycolytic acidification in a concentration-dependent manner
non-glycolytic acidification (ECAR) (PC-9 cells; 0.25-1 μM, 4 hours): no appreciable effect
oxygen consumption rate (OCR), basal state (PC-9 cells; prior to glucose supplementation, relative to DMSO): increase oxygen consumption in the basal state
